These results are taken from patent US20090011400A1, “Substrate switched ammonia lyases and mutases” (The Salk Institute for Biological Studies and The Regents …, priority 2006, published 2009).

Data set [1] relates to PlPAL (Photorhabdus luminescens phenylalanine ammonia lyase). The conditions noted are these: cited from earlier work.
The target of data set [2] is T1, Rhodobacter sphaeroides tyrosine ammonia lyase (RsTAL) variant H89F (His89Phe) (Cereibacter sphaeroides, UniProt Q3IWB0, H89F).
T1 sequence (Q3IWB0 1-523 H89F): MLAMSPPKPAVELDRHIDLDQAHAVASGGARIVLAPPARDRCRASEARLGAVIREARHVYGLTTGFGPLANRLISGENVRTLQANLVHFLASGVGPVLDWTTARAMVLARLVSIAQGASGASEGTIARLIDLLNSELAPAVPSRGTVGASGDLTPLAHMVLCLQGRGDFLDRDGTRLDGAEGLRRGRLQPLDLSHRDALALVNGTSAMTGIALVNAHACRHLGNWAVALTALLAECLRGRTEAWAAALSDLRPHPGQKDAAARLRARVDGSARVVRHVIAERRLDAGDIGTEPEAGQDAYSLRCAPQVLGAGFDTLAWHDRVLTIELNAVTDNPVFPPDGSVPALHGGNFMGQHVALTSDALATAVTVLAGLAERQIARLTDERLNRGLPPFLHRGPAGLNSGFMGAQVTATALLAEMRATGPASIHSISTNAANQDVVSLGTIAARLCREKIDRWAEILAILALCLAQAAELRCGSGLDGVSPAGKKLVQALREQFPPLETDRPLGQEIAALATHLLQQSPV
The data set is described as follows: Ammonia lyase steady-state kinetics, H89F RsTAL.

Data set [3] concerns SmPAL (Streptomyces maritimus phenylalanine ammonia lyase). Particulars: cited from earlier work.
In data set [4] the test system is PcPAL (Petroselinum crispum phenylalanine ammonia lyase). Particulars: cited from earlier work.
The subject of data set [5] is SeTAL (Saccharothrix espanaensis tyrosine ammonia lyase). Particulars: cited from earlier work.
Data set [6] has as its system ZmPAL (Z. mays phenylalanine ammonia lyase). The conditions noted are these: cited from earlier work.
Data set [7] has as its system RcTAL (Rhodobacter capsulatus tyrosine ammonia lyase). Particulars: cited from earlier work.
Data set [8] deals with T2, RsTAL (Cereibacter sphaeroides, UniProt Q3IWB0).
T2 construct: His8 (octahistidine), thrombin-cleavable (N, cleaved yes); made in house; host or cells: E. coli BL21(DE3)
T2 sequence (Q3IWB0 1-523): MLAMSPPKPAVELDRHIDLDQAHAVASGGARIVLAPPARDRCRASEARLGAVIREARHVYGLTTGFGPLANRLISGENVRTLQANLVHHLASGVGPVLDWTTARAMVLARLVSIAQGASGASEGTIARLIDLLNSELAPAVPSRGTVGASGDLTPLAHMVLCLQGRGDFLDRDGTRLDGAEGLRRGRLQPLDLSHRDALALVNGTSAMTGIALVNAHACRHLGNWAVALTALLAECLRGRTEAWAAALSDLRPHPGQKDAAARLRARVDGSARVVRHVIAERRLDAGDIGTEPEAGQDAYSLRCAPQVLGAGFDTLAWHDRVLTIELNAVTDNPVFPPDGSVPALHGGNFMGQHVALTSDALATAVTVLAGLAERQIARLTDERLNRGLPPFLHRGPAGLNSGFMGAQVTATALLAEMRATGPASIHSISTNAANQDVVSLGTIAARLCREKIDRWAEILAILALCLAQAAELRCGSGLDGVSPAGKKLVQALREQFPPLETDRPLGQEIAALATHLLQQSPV
The data set is described as follows: Crystal soaking experiments of RsTAL with ligands. Particulars: wild type RsTAL crystals soaked with ligand. Type of data set: binding, Rhodobacter sphaeroides. On the procedure: Monoclinic crystals of RsTAL (space group […]) were grown from a 1:1 mixture of protein solution (20 mg/ml in 12.5 mM Tris-HCl, pH 7.5, 50 mM NaCl) and a reservoir solution (0.1 M MOPSO—Na^+, pH 7.0, 7% (w/v) polyethylene glycol 8000, 0.3 M ammonium acetate, 2 mM dithiothreitol, 35 mM cyclohexylbutanoyl-N-hydroxyethylglucamide) using vapor diffusion against reservoir solutions at 4° C. Crystal growth typically occurred over a period of one to three weeks and was expedited through microseeding. […] Crystals of RsTAL in complex with small molecule ligands were produced by soaking crystals for 24-48 hrs in reservoir solutions supplemented with 10-20 mM coumaric acid, caffeic acid, cinnamic acid or AIP.

Data set [9] concerns the target T3, Rhodobacter sphaeroides tyrosine ammonia lyase (RsTAL), wild type (Cereibacter sphaeroides, UniProt Q3IWB0).
T3 construct: octahistidine (His8), thrombin-cleavable (N, cleaved yes); made in house; host or cells: E. coli BL21(DE3)
T3 sequence (Q3IWB0 1-523): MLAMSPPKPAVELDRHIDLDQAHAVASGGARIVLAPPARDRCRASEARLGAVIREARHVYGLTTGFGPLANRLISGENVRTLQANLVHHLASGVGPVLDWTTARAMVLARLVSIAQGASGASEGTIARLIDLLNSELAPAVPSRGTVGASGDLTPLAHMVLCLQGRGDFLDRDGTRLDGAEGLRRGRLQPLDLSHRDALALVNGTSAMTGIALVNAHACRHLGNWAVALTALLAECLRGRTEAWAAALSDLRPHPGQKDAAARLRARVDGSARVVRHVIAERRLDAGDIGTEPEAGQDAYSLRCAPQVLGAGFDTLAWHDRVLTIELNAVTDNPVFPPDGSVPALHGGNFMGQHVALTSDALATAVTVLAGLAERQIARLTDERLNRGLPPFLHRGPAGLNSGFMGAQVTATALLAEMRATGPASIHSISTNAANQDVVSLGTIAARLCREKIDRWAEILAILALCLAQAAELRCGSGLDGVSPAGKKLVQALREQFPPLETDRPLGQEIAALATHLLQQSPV
Put plainly: Ammonia lyase steady-state kinetics, wild type RsTAL. Type of data set: biochemical. Particulars: wt RsTAL. On the procedure:
(§1) TAL activity was measured spectrophotometrically by monitoring the formation of a conjugated aryl-acid product. The conversion of L-Tyr to p-coumarate was followed at 310 nm and L-Phe to cinnamate at 280 nm. The assay mixture (total volume 0.5 ml) contained 0.1 M Tris HCl (pH 8.5), and for each fixed amount of TAL, eight different initial concentrations of amino acid substrate. After pre-incubation of the enzyme at 37° C. for 2 min, reactions were initiated by the addition of substrate, and formation of product was monitored for 5 min. For wild type RsTAL, activity was assayed with 7.5 μg protein and initial L-Tyr concentrations between 0.01 and 2.4 mM, and PAL activity was assayed with 30 μg protein and initial L-Phe concentrations between 3.2 and 51.2 mM. For the RsTAL H89F mutant, PAL activity was assayed with 10 μg protein and initial L-Phe concentrations between 0.05 and 5.2 mM. Each series of assays were performed in triplicate, and a Hanes plot was used for the estimation of steady-state kinetic constants.

Substrate in data set [10]: N[C@@H](Cc1ccccc1)C(=O)O
Put plainly: purified protein, by the assay type. The conditions noted are these: other: H89F RsTAL, pH 8.5, 37° C.

The nature of data set [11]: PAL activity: spectrophotometric steady-state kinetics, L-Phe to cinnamate. Type of data set: biochemical. Particulars: substrate L-Phe. On the procedure:
as §1

Substrate in data set [12]: N[C@@H](Cc1ccccc1)C(=O)O
Put plainly: Ammonia lyase steady-state kinetics, wild type RsTAL. Type of data set: biochemical, Rhodobacter sphaeroides. Particulars: other: wt RsTAL, pH 8.5, 37° C. As for the experimental part: as §1

Substrate in data set [13]: N[C@@H](Cc1ccc(O)cc1)C(=O)O
The data set is described as above. Type of data set: biochemical, Rhodobacter sphaeroides. The conditions noted are these: other: wt RsTAL, pH 8.5, 37° C. On the procedure: as §1

Usually Km stands for the concentration of substrate that gives half-maximal velocity. By kcat is commonly meant the number of substrate molecules converted per active site and unit of time at saturation. Turning to `N[C@@H](Cc1ccccc1)C(=O)O` [L-Phe], the Km in data set [1] was 320 µM; in [3], 23 µM; in data set [4], 17.2 µM; in [5], 2860 µM; in [6] it was 270 µM; in data set [7], 1280 µM. The kcat in [1] is 0.8 s⁻¹; in data set [2] (pH 8.5, 37° C.) it was 8.15 s⁻¹; in data set [3] it was 0.0048 s⁻¹; in [4] it was 22 s⁻¹; in [5] it was 0.0038 s⁻¹; in [6], 10 s⁻¹. Further, in [7], the kcat is 15.1 s⁻¹.

`O=C(O)C=Cc1ccccc1` [cinnamic acid]: in [8], the “binding observed in RsTAL crystals (in words)” value is listed as “no significant binding”.

As to `N[C@@H](Cc1ccc(O)cc1)C(=O)O` [L-Tyr], the “Km better for L-Tyr as compared to L-Phe” value in data set [9] (L-Tyr vs L-Phe) worked out at 150 fold. The kcat in data set [9] (pH 8.5, 37° C.) is 4.32 s⁻¹; in data set [4], 0.3 s⁻¹; in data set [5] it was 0.015 s⁻¹; in data set [6], 0.9 s⁻¹; in data set [7], 27.7 s⁻¹. In addition, the “activity with L-Tyr” value in [2] is listed as “lacks activity”. The Km in [4] was 2500 µM; in [5] it was 15.5 µM; in data set [6] it was 19 µM; in [7], 15.6 µM.

Regarding `N[C@@H](Cc1ccc(O)c(O)c1)C(=O)O` [L-DOPA, L-3,4-dihydroxyphenylalanine], in [9] (deamination), the “activity with L-DOPA” value is “significant activity”.

B1: Rhodobacter sphaeroides tyrosine ammonia lyase (RsTAL) variant H89F (His89Phe) (Cereibacter sphaeroides 2.4.1; H89F) (protein)
chain: MLAMSPPKPAVELDRHIDLDQAHAVASGGARIVLAPPARDRCRASEARLGAVIREARHVYGLTTGFGPLANRLISGENVRTLQANLVHFLASGVGPVLDWTTARAMVLARLVSIAQGASGASEGTIARLIDLLNSELAPAVPSRGTVGASGDLTPLAHMVLCLQGRGDFLDRDGTRLDGAEGLRRGRLQPLDLSHRDALALVNGTSAMTGIALVNAHACRHLGNWAVALTALLAECLRGRTEAWAAALSDLRPHPGQKDAAARLRARVDGSARVVRHVIAERRLDAGDIGTEPEAGQDAYSLRCAPQVLGAGFDTLAWHDRVLTIELNAVTDNPVFPPDGSVPALHGGNFMGQHVALTSDALATAVTVLAGLAERQIARLTDERLNRGLPPFLHRGPAGLNSGFMGAQVTATALLAEMRATGPASIHSISTNAANQDVVSLGTIAARLCREKIDRWAEILAILALCLAQAAELRCGSGLDGVSPAGKKLVQALREQFPPLETDRPLGQEIAALATHLLQQSPV
For B1, the Km in [10] amounted to 434 µM.

B2: H89F RsTAL: engineered RsTAL variant with the single amino acid substitution H89F (His 89 replaced by Phe) (protein)
chain: MLAMSPPKPAVELDRHIDLDQAHAVASGGARIVLAPPARDRCRASEARLGAVIREARHVYGLTTGFGPLANRLISGENVRTLQANLVHFLASGVGPVLDWTTARAMVLARLVSIAQGASGASEGTIARLIDLLNSELAPAVPSRGTVGASGDLTPLAHMVLCLQGRGDFLDRDGTRLDGAEGLRRGRLQPLDLSHRDALALVNGTSAMTGIALVNAHACRHLGNWAVALTALLAECLRGRTEAWAAALSDLRPHPGQKDAAARLRARVDGSARVVRHVIAERRLDAGDIGTEPEAGQDAYSLRCAPQVLGAGFDTLAWHDRVLTIELNAVTDNPVFPPDGSVPALHGGNFMGQHVALTSDALATAVTVLAGLAERQIARLTDERLNRGLPPFLHRGPAGLNSGFMGAQVTATALLAEMRATGPASIHSISTNAANQDVVSLGTIAARLCREKIDRWAEILAILALCLAQAAELRCGSGLDGVSPAGKKLVQALREQFPPLETDRPLGQEIAALATHLLQQSPV
modifications: H89F mutant of Rhodobacter sphaeroides tyrosine ammonia lyase
As for B2, in data set [11], the “increase in kcat/Km in comparison to wild type RsTAL” value is 17 fold.

B3: Rhodobacter sphaeroides tyrosine ammonia lyase (RsTAL), wild type (Cereibacter sphaeroides 2.4.1) (protein)
chain: MLAMSPPKPAVELDRHIDLDQAHAVASGGARIVLAPPARDRCRASEARLGAVIREARHVYGLTTGFGPLANRLISGENVRTLQANLVHHLASGVGPVLDWTTARAMVLARLVSIAQGASGASEGTIARLIDLLNSELAPAVPSRGTVGASGDLTPLAHMVLCLQGRGDFLDRDGTRLDGAEGLRRGRLQPLDLSHRDALALVNGTSAMTGIALVNAHACRHLGNWAVALTALLAECLRGRTEAWAAALSDLRPHPGQKDAAARLRARVDGSARVVRHVIAERRLDAGDIGTEPEAGQDAYSLRCAPQVLGAGFDTLAWHDRVLTIELNAVTDNPVFPPDGSVPALHGGNFMGQHVALTSDALATAVTVLAGLAERQIARLTDERLNRGLPPFLHRGPAGLNSGFMGAQVTATALLAEMRATGPASIHSISTNAANQDVVSLGTIAARLCREKIDRWAEILAILALCLAQAAELRCGSGLDGVSPAGKKLVQALREQFPPLETDRPLGQEIAALATHLLQQSPV
notes: octahistidine (His8), thrombin-cleavable (N, cleaved yes); made in house; host or cells: E. coli BL21(DE3)
As usually defined, the kcat/Km is the turnover number divided by the Michaelis constant. With B3, in [12], the Km amounted to 11400 µM, the catalytic constant (kcat) worked out at 13.1 s⁻¹ and the catalytic efficiency (kcat/Km) was found to be 1100 M⁻¹ s⁻¹. Also, in [13], the Michaelis constant (Km) is 74.2 µM.
